pIC50: −log10 of the molar value.
molecular target: ROMK (Kir1.1) channel (Homo sapiens (Human), UniProt P48048); assay: Thallium Flux Assay; type: cell-based
Experimental: A Thallium Flux Assay was performed on each of the final product compounds of the Examples. This assay has been described previously; see, e.g., PCT Published Application WO 2013/062900.

Sequence of ROMK (Kir1.1) channel (P48048 whole entry): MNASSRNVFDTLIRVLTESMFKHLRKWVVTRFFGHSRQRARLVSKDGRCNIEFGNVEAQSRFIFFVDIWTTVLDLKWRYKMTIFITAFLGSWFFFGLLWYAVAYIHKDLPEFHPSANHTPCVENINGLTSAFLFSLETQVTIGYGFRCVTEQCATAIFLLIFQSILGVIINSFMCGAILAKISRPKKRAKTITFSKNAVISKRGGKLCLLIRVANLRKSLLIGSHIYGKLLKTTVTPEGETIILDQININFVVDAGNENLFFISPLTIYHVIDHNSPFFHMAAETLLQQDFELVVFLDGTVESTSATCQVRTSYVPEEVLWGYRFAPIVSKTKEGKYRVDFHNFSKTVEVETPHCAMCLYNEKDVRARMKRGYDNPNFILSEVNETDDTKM

| pIC50 | Structure (SMILES) |
| --- | --- |
| 7.62 | CC1=C(N2CC[C@]3(CC[C@H](NCc4ccc(-n5cnnn5)cn4)CC3)C2=O)COC1=O [Example 7A, (5s,8s)-2-(4-methyl-5-oxo-2,5-dihydrofuran-3-yl)-8-({[5-(1H-tetrazol-1-yl)pyridin-2-yl]methyl}amino)-2-azaspiro[4.5]decan-1-one] |
| 7.64 | C[C@H]1C[C@]2(CC[C@@H](NCc3ccc4c(c3)Cn3nnnc3-4)CC2)C(=O)N1C1=CC(=O)OC1 [Example 63, (3S,5r,8S)-8-(((5H-tetrazolo[5,1-a]isoindol-7-yl)methyl)amino)-3-methyl-2-(5-oxo-2,5-dihydrofuran-3-yl)-2-azaspiro[4.5]decan-1-one] |
| 6.70 | CC1=C(N2CC[C@]3(CC[C@H](NCCc4ccc5c(c4)COC5=O)CC3)C2=O)COC1=O [Example 3, (5s,8s)-2-(4-methyl-5-oxo-2,5-dihydrofuran-3-yl)-8-{[2-(1-oxo-1,3-dihydro-2-benzofuran-5-yl)ethyl]amino}-2-azaspiro[4.5]decan-1-one] |
| 6.14 | C[C@@H]1C[C@]2(CC[C@@H](NCc3ccc(-n4cnnn4)nc3)CC2)C(=O)N1C1=CC(=O)OC1 [Example 23, (3R,5r,8R)-3-methyl-2-(5-oxo-2,5-dihydrofuran-3-yl)-8-({[6-(1H-tetrazol-1-yl)pyridin-3-yl]methyl}amino)-2-azaspiro[4.5]decan-1-one] |
| 6.44 | CC1=C(N2CC[C@]3(CC[C@H](N[C@H](CO)c4ccc(-n5cnnn5)nc4)CC3)C2=O)COC1=O [Example 77] |
| 7.04 | CC1=C(N2CC[C@]3(CC[C@@H](N[C@H](C)c4ccc(-n5cnnn5)nn4)CC3)C2=O)COC1=O [Example 15, (5R,8r)-2-(4-methyl-5-oxo-2,5-dihydrofuran-3-yl)-8-({(1R)-1-[6-(1H-tetrazol-1-yl)pyridazin-3-yl]ethyl}amino)-2-azaspiro[4.5]decan-1-one] |
| 7.42 | C[C@@H]1C[C@]2(CC[C@H](NCc3ccc(-n4cnnn4)nc3)CC2)C(=O)N1C1=CC(=O)OC1 [Example 27, (3R,5s,8S)-3-methyl-2-(5-oxo-2,5-dihydrofuran-3-yl)-8-({[6-(1H-tetrazol-1-yl)pyridin-3-yl]methyl}amino)-2-azaspiro[4.5]decan-1-one] |
| 7.31 | CC1=C(N2CC[C@]3(CC[C@H](NCc4ccc(-n5cnnn5)cc4)CC3)C2=O)COC1=O [Example 43, (5s,8s)-2-(4-methyl-5-oxo-2,5-dihydrofuran-3-yl)-8-{[4-(1H-tetrazol-1-yl)benzyl]amino}-2-azaspiro[4.5]decan-1-one] |
| 7.52 | CC1=C(N2CC[C@]3(CC[C@@H](N(CCO)Cc4ccc(-n5cnnn5)nc4)CC3)C2=O)COC1=O [Example 130, (5r,8r)-8-(((6-(1H-tetrazol-1-yl)pyridin-3-yl)methyl)(2-hydroxyethyl)amino)-2-(4-methyl-5-oxo-2,5-dihydrofuran-3-yl)-2-azaspiro[4.5]decan-1-one] |
| 7.06 | CN(Cc1ccc(-n2cnnn2)nn1)C1CCC2(CC1)CCN(C1=CC(=O)OC1)C2=O (stereo not shown) [Example 103] |
| 6.72 | CC1=C(N2CC[C@]3(CC[C@H](N(C)[C@H](CO)c4ccc(-n5cnnn5)nc4)CC3)C2=O)COC1=O [Example 85] |
| 8.47 | CC1=C(N2CC[C@]3(CC[C@@H](N(C)Cc4ccc(-n5ncnn5)cc4)CC3)C2=O)COC1=O [Example 109] |
| 7.72 | C[C@@H]1C[C@]2(CC[C@H](NCc3ccc4c(c3)Cn3nnnc3-4)CC2)C(=O)N1C1=CC(=O)OC1 [Example 65, (3R,5s,8S)-8-(((5H-tetrazolo[5,1-a]isoindol-7-yl)methyl)amino)-3-methyl-2-(5-oxo-2,5-dihydrofuran-3-yl)-2-azaspiro[4.5]decan-1-one] |
| 8.51 | CC1=C(N2CC[C@]3(CC[C@@H](NCc4ccc(-n5cnnn5)cc4)CC3)C2=O)COC1=O [Example 44, (5r,8r)-2-(4-methyl-5-oxo-2,5-dihydrofuran-3-yl)-8-{[4-(1H-tetrazol-1-yl)benzyl]amino}-2-azaspiro[4.5]decan-1-one] |
| 7.03 | CN(Cc1cnc(-n2cnnn2)cn1)C1CCC2(CC1)CCN(C1=CC(=O)OC1)C2=O (stereo not shown) [Example 128] |
| 8.00 | CC1=C(N2CC[C@]3(CC[C@@H](NCc4ccc(-n5cnnn5)nn4)CC3)C2=O)COC1=O [Example 1, (5r,8r)-2-(4-methyl-5-oxo-2,5-dihydrofuran-3-yl)-8-({[6-(1H-tetrazol-1-yl)pyridazin-3-yl]methyl}amino)-2-azaspiro[4.5]decan-1-one] |
| 7.66 | CC1=C(N2CC[C@]3(CC[C@@H](N(C)Cc4ccc5c(c4)Cn4nnnc4-5)CC3)C2=O)COC1=O [Example 90] |
| 6.47 | CC1=C(N2CC[C@]3(CC[C@H](N[C@H](C)c4ccc5c(c4)CCc4nnnn4-5)CC3)C2=O)COC1=O [Example 17, (5S,8s)-8-{[(1R)-1-(4,5-dihydrotetrazolo[1,5-a]quinolin-7-yl)ethyl]amino}-2-(4-methyl-5-oxo-2,5-dihydrofuran-3-yl)-2-azaspiro[4.5]decan-1-one] |

| pIC50 | Structure (SMILES) |
| --- | --- |
| 7.82 | CC1=C(N2CC[C@]3(CC[C@@](C)(NCc4cnc(-n5cnnn5)cn4)CC3)C2=O)COC1=O [Example 69, (5r,8r)-8-(((5-(1H-tetrazol-1-yl)pyrazin-2-yl)methyl)amino)-8-methyl-2-(4-methyl-5-oxo-2,5-dihydrofuran-3-yl)-2-azaspiro[4.5]decan-1-one] |
| 8.22 | CC1=C(N2CC[C@]3(CC[C@@H](NCc4ccc5c(c4F)Cn4nnnc4-5)CC3)C2=O)COC1=O [Example 59, (5r,8r)-8-(((6-fluoro-5H-tetrazolo[5,1-a]isoindol-7-yl)methyl)amino)-2-(4-methyl-5-oxo-2,5-dihydrofuran-3-yl)-2-azaspiro[4.5]decan-1-one] |
| 7.39 | C[C@H]1C[C@]2(CC[C@@H](N(C)Cc3ccc(-n4cnnn4)nn3)CC2)C(=O)N1C1=CC(=O)OC1 [Example 104, (3S,5r,8S)-8-(((6-(1H-tetrazol-1-yl)pyridazin-3-yl)methyl)(methyl)amino)-3-methyl-2-(5-oxo-2,5-dihydrofuran-3-yl)-2-azaspiro[4.5]decan-1-one] |
| 6.96 | CC1=C(N2CC[C@]3(CC[C@H](N(CC(N)=O)Cc4ccc(-n5cnnn5)nc4)CC3)C2=O)COC1=O [Example 140] |
| 6.19 | CC1=C(N2C(=O)[C@]3(CC[C@H](NCc4ccc5c(c4)Cn4nnnc4-5)CC3)C[C@H]2C)COC1=O [Example 60, (3R,5r,8R)-8-(((5H-tetrazolo[5,1-a]isoindol-7-yl)methyl)amino)-3-methyl-2-(4-methyl-5-oxo-2,5-dihydrofuran-3-yl)-2-azaspiro[4.5]decan-1-one] |
| 6.46 | CC1=C(N2CC[C@]3(CC[C@H](NCc4ccc5c(c4C)COC5=O)CC3)C2=O)COC1=O [Example 4, (5s,8s)-8-(((4-methyl-1-oxo-1,3-dihydroisobenzofuran-5-yl)methyl)amino)-2-(4-methyl-5-oxo-2,5-dihydrofuran-3-yl)-2-azaspiro[4.5]decan-1-one] |
| 6.59 | CC1=C(N2CC[C@]3(CC[C@@H](N[C@@H](C)c4ccc5c(c4)Cn4nnnc4-5)CC3)C2=O)COC1=O [Example 31, (5S,8r)-2-(4-methyl-5-oxo-2,5-dihydrofuran-3-yl)-8-{[(1S)-1-(5H-tetrazolo[5,1-a]isoindol-7-yl)ethyl]amino}-2-azaspiro[4.5]decan-1-one] |
| 7.15 | CC1=C(N2CC[C@]3(CC[C@](C)(NCc4ccc(-n5cnnn5)nn4)CC3)C2=O)COC1=O [Example 42, (5s,8s)-8-methyl-2-(4-methyl-5-oxo-2,5-dihydrofuran-3-yl)-8-({[6-(1H-tetrazol-1-yl)pyridazin-3-yl]methyl}amino)-2-azaspiro[4.5]decan-1-one] |
| 6.54 | CC1=C(N2CC[C@]3(CC[C@H](N(C)[C@@H](CO)c4ccc(-n5cnnn5)nc4)CC3)C2=O)COC1=O [Example 101] |
| 7.36 | CC1=C(N2CC[C@]3(CC[C@@H](NCCc4ccc5c(c4)COC5=O)CC3)C2=O)COC1=O [Example 2, (5r,8r)-2-(4-methyl-5-oxo-2,5-dihydrofuran-3-yl)-8-{[2-(1-oxo-1,3-dihydro-2-benzofuran-5-yl)ethyl]amino}-2-azaspiro[4.5]decan-1-one] |
| 6.31 | CCN(Cc1ccc2c(c1C)COC2=O)C1CCC2(CC1)CCN(C1=C(C)C(=O)OC1)C2=O (stereo not shown) [Example 142] |
| 8.37 | CC1=C(N2CC[C@]3(CC[C@@H](NCc4ccc5c(c4)CCc4nnnn4-5)CC3)C2=O)COC1=O [Example 51, (5r,8r)-8-(((4,5-dihydrotetrazolo[1,5-a]quinolin-7-yl)methyl)amino)-2-(4-methyl-5-oxo-2,5-dihydrofuran-3-yl)-2-azaspiro[4.5]decan-1-one] |
| 5.70 | O=C1C=C(N2CC[C@]3(CC[C@H](NCc4cnc(-n5cnnn5)cn4)CC3)C2=O)CO1 [Example 73, (5s,8s)-8-(((5-(1H-tetrazol-1-yl)pyrazin-2-yl)methyl)amino)-2-(5-oxo-2,5-dihydrofuran-3-yl)-2-azaspiro[4.5]decan-1-one] |
| 7.41 | CC1C[C@]2(CC[C@@H](NCc3cnc(-n4cnnn4)cn3)CC2)C(=O)N1C1=CC(=O)OC1 (stereo partly shown) [Example 50, (5r,8r)-3-methyl-2-(5-oxo-2,5-dihydrofuran-3-yl)-8-({[5-(1H-tetrazol-1-yl)pyrazin-2-yl]methyl}amino)-2-azaspiro[4.5]decan-1-one] |
| 6.29 | CC1=C(N2CC[C@]3(CC[C@H](N(C)[C@H](C)c4ccc(-n5cnnn5)nc4)CC3)C2=O)COC1=O [Example 93] |
| 7.47 | CCN(Cc1ccc(-n2cnnn2)cn1)[C@H]1CC[C@]2(CCN(C3=C(C)C(=O)OC3)C2=O)CC1 [Example 138] |
| 7.47 | CC1=C(N2CC[C@]3(CC[C@@H](N[C@@H](C)c4ccc(-n5cnnn5)nc4)CC3)C2=O)COC1=O [Example 9, (5S,8r)-2-(4-methyl-5-oxo-2,5-dihydrofuran-3-yl)-8-({(1S)-1-[6-(1H-tetrazol-1-yl)pyridin-3-yl]ethyl}amino)-2-azaspiro[4.5]decan-1-one] |

| Structure (SMILES) | pIC50 |
| --- | --- |
| CC1=C(N2CC[C@]3(CC[C@@](C)(N(C)Cc4cnc(-n5cnnn5)cn4)CC3)C2=O)COC1=O [Example 129] | 7.35 |
| CC1=C(N2CC[C@]3(CC[C@@](C)(N(C)Cc4ccc(-n5cnnn5)nn4)CC3)C2=O)COC1=O [Example 116] | 7.62 |

Reference: patent publication US9718808B2, “Inhibitors of the renal outer medullary potassium channel” (Merck Sharp & Dohme Corp., priority 2014, dated 2017)
